# Source: publication PMC8546889 (Acta Pharmaceutica Sinica. B, 2021)
# Where two headings read alike, the source gives them in different places.
# Tests used:
# HT-29 cells [1] = assay: Anti-necroptosis activity assay; format: cell-based, human; details: for EC50: Homo sapiens, HT-29, read-out: Anti-necroptosis (EC50); for anti-necroptosis activity improvement compared with TAK-632: EC50 ratio versus TAK-632
# [2] = read-out: Cytotoxicity (CC50); cited from earlier work
# RIP1 [3] = molecular target: T1, RIP1 (Homo sapiens, UniProt Q13546); assay: KINOMEscan kinase binding assay, RIP1; details: for RIP1 selectivity: RIP1 over RIP3 (Kd ratio)
# T1 sequence (Q13546 1-671): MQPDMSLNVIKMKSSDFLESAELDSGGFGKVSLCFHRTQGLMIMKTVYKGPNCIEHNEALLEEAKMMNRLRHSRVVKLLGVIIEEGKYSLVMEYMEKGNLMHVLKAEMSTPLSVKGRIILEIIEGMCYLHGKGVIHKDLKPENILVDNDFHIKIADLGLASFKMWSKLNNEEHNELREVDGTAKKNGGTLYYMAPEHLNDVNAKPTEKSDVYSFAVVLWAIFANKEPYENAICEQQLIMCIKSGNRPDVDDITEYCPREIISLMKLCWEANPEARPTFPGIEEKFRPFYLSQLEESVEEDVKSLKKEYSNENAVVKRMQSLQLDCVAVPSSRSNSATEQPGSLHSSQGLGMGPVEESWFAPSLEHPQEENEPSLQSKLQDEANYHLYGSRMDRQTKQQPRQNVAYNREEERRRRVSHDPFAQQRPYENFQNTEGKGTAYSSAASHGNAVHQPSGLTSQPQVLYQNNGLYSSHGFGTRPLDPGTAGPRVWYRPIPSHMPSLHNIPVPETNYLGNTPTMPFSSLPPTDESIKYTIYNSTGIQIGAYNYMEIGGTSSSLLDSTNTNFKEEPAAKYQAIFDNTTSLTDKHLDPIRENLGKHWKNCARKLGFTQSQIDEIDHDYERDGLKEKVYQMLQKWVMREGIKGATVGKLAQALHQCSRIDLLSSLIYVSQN
# Cytotoxicity = format: cell-based
# RIP3 [4] = molecular target: T2, RIP3 (Homo sapiens, UniProt Q9Y572); assay: KINOMEscan kinase binding assay, RIP3
# T2 sequence (Q9Y572 whole entry): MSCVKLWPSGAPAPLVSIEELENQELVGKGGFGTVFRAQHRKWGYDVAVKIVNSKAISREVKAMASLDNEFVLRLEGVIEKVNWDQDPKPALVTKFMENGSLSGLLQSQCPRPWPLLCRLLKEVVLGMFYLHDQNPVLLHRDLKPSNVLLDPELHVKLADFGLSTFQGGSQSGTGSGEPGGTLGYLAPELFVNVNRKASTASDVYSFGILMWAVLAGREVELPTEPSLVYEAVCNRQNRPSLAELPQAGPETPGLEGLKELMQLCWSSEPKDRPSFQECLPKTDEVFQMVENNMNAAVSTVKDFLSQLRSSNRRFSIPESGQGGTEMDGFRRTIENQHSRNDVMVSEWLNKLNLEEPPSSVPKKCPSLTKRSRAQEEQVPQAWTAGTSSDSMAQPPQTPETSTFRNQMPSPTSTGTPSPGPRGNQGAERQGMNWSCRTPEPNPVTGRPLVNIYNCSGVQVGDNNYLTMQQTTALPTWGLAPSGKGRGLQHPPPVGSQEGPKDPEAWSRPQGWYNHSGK
# PK study in mice = format: in vivo; details: male, ICR, mouse, plasma; for AUC: mice
# [5] = system: phosphorylation of RIP1, RIP3, and MLKL; assay: Immunoblotting of necroptosis pathway phosphorylation in TSZ-induced HT-29 cells; format: cell-based, human; details: 1 μmol/L
# HT-29 cells [6] = assay: Apoptosis model induced by TC or TS in HT-29 cells; format: cell-based, human; details: different concentrations
# RIP1 [7] = molecular target: T1, RIP1; assay: Drug affinity responsive target stability assay; details: 50 μmol/L, HT-29 cell lysates, 0.1% Pronase 30 min
# C57BL/6 J mice [8] = assay: TNF-α-induced systemic inflammatory response syndrome; details: for survival rate of SIRS mice: over 60 h
# healthy mice = assay: Single-dose acute oral toxicity test; format: in vivo
# C57BL/6 J mice [9] = assay: DSS-induced UC model; format: in vivo
# L929 cells = assay: TZ-induced necroptosis in L929 cells; details: mTNF-α and Z-VAD-FMK (TZ), 9 h
# RIP1-RIP3 necrosome = molecular target: T3, RIP1-RIP3 necrosome (Homo sapiens, UniProt Q13546); assay: Immunoprecipitation of RIP1-RIP3 necrosome; details: HT-29 cells, 1 μmol/L, 6 h
# T3 sequence (Q13546 1-671): T1 sequence (Q13546 1-671)
# RIP3 [10] = molecular target: T2, RIP3; assay: Drug affinity responsive target stability assay; details: 50 μmol/L, HT-29 cell lysates, 0.1% Pronase 30 min
# HT-29 cells [11] = assay: TCZ-induced necroptosis in HT-29 cells; format: cell-based, human; details: TCZ 24 h
structure (smiles),measurement,setting,value
N#Cc1cc(Oc2ccc(F)c(NC(=O)Cc3cccc(C(F)(F)F)c3)c2)cc2sc(NC(=O)C3CC3)nc12 [Compound 15],EC50,HT-29 cells [1],> 10000 nM
same,anti-necroptosis activity,HT-29 cells [1]; at 10 μmol/L,completely eliminated the activity
"N#Cc1c(Oc2ccc(F)c(NC(=O)Cc3cccc(C(F)(F)F)c3)c2)ccc2nc(NC(=O)C3CC3)sc12 [Compound 5, N-(7-Cyano-6-(4-fluoro-3-(2-(3-(trifluoromethyl)phenyl)acetamido)phenoxy)benzo[d]thiazol-2-yl)cyclopropanecarboxamide]",CC50,[2],> 50000 nM
CC(=O)c1c(Oc2ccc(F)c(NC(=O)Cc3cccc(C(F)(F)F)c3)c2)ccc2nc(NC(=O)C3CC3)sc12 [Compound 10],Kd,RIP1 [3],880 nM
same,RIP1 selectivity,RIP1 [3],0.37
same,anti-necroptosis activity improvement compared with TAK-632,HT-29 cells [1],more than 10 fold
same,EC50,HT-29 cells [1],130 ± 60 nM
same,CC50,Cytotoxicity,> 50000 nM
same,Kd,RIP3 [4],330 nM
"O=C(Cc1cccc(C(F)(F)F)c1)Nc1cc(Oc2cc3sc(NC(=O)C4CC4)nc3cc2F)ccc1F [Compound 25, N-(5-Fluoro-6-(4-fluoro-3-(2-(3-(trifluoromethyl)phenyl)acetamido)phenoxy)benzo[d]thiazol-2-yl)cyclopropanecarboxamide]",MRT inf,"PK study in mice; iv, 1 mg/kg",1.59 ± 0.43 h
same,Vd,"PK study in mice; iv, 1 mg/kg",1670 ± 856 L/kg
same,clearance,"PK study in mice; iv, 1 mg/kg",16.8 ± 4.8 mL/min/kg
same,half-life,"PK study in mice; iv, 1 mg/kg",1.67 ± 0.46 h
same,AUC,"PK study in mice; iv, 1 mg/kg, AUC0‒t, 1 mg/kg i.v.",1030 ± 350 ng·h/mL
same,AUC,"PK study in mice; iv, 1 mg/kg, AUC0‒∞, 1 mg/kg i.v.",1060 ± 354 ng·h/mL
same,Cmax,"PK study in mice; po, 10 mg/kg",381 ± 35 ng/mL
same,MRT inf,"PK study in mice; po, 10 mg/kg",2.74 ± 0.32 h
same,Tmax,"PK study in mice; po, 10 mg/kg",0.67 ± 0.29 h
same,bioavailability,"PK study in mice; po, 10 mg/kg",9.69 ± 2.31%
same,half-life,"PK study in mice; po, 10 mg/kg",1.18 ± 0.62 h
same,AUC,"PK study in mice; po, 10 mg/kg, AUC0‒t, 10 mg/kg p.o.",991 ± 218 ng·h/mL
same,AUC,"PK study in mice; po, 10 mg/kg, AUC0‒∞, 10 mg/kg p.o.",1030 ± 245 ng·h/mL
same,downstream phosphorylation of MLKL,[5],completely inhibited
same,phosphorylation of RIP1 and RIP3,[5]; within 6 h,completely inhibit
same,anti-necroptosis potency improvement compared with SZM-594,HT-29 cells [1]; EC50 ratio versus SZM-594,21 fold
same,anti-necroptosis activity improvement compared with TAK-632,HT-29 cells [1],180 fold
same,inhibition of necroptosis induced by TSZ,"HT-29 cells [1]; HT-29 cells, TSZ 12 h",dose-dependently inhibit necroptosis
same,EC50,HT-29 cells [1],8 ± 1 nM
same,protective effects in the apoptosis model,HT-29 cells [6],did not show any protective effects
same,DARTS protection of RIP1 from protease digestion,RIP1 [7],protected from protease digestion
same,CC50,Cytotoxicity,> 50000 nM
same,body temperature loss in SIRS mice,"C57BL/6 J mice [8]; 10 or 20 mg/kg intragastric, first 2–3 h after mTNF-α/Z-VAD-FMK",protected mice from body temperature loss
same,survival rate of SIRS mice,C57BL/6 J mice [8]; single dose 10 mg/kg,60%
same,survival rate of SIRS mice,C57BL/6 J mice [8]; single dose 20 mg/kg,100%
same,death after single oral dose,"healthy mice; 5 g/kg intragastric, 2 weeks, male and female mice",no death occurred
same,acute tolerability,"healthy mice; 5 g/kg, 14-day period",well tolerated
same,activity toward RIP3,RIP3 [4]; even at 5000 nmol/L,no apparent activity
same,colon length,"C57BL/6 J mice [9]; 20 mg/kg, Day 13, P < 0.01 versus untreated colitis mice",longer colon length
same,alleviation of body weight in UC mice,"C57BL/6 J mice [9]; 10 or 20 mg/kg intragastric, from Day 11",significantly dose-responsed speeded up
same,"phosphorylation of RIP1, RIP3 and MLKL in colon tissue","C57BL/6 J mice [9]; Western blot, TUNEL",reducing the phosphorylation
same,mRNA of inflammatory cytokines (Il-6 and Il-1β) and chemokine receptors (Ccr-2 and Ccr-5),"C57BL/6 J mice [9]; colon tissue, qPCR",significantly reduced
same,protein expressions of IL-6 and IL-1β in colon tissue,C57BL/6 J mice [9]; dose–response manner,inhibited the protein expressions
same,level of FITC-dextran in the serum,"C57BL/6 J mice [9]; intestinal permeability, versus DSS-disease mice",significantly lower
same,attenuation of necroptosis in L929 cells,L929 cells,dose-dependently attenuated necroptosis
same,TSZ-induced necrosome formation,RIP1-RIP3 necrosome,completely blocked
same,DARTS detection of RIP3 after protease digestion,RIP3 [10],not detected
same,inhibition of necroptosis induced by TCZ,HT-29 cells [11],dose-dependently inhibit necroptosis
O=C(Cc1cccc(C(F)(F)F)c1)Nc1cc(Oc2ccc3nc(NC(=O)C4CC4)sc3c2[N+](=O)[O-])ccc1F [Compound 9],Kd,RIP1 [3],710 nM
same,RIP1 selectivity,RIP1 [3],0.37
same,EC50,HT-29 cells [1],480 ± 10 nM
same,CC50,Cytotoxicity,> 50000 nM
same,Kd,RIP3 [4],260 nM
